“Also recorded” adds a separate entry of the source.
Assays:
[1] = tested on: macrophage cell line derived from TRIF/TRAM knockout mice (NR-9568); experiment: Cytokine/chemokine induction in TRIF/TRAM double-knockout cell line; format: cell-based; settings: TRIF/TRAM double-knockout murine cell line
Experimental: Cytokine induction by 7e and 7f was examined in murine-derived cell lines. […] The absence of activity was not due to extensive plasma protein binding by re-examining under near-serum-free conditions.
Example 5: High-throughput screens in porcine blood: Curated compound collections were obtained from the Institute for Therapeutics Discovery & Development at the University of Minnesota. Compound transfers from source (80 nL of 10 mM stocks) to assay plates were performed using an Echo 550 acoustic liquid handler (Labcyte, Sunnyvale, Calif.). For most libraries, a target final concentration of 10 μM of compound (in a final volume of 80 μL for the assay described below) was achieved. Compound plates were hermetically sealed and stored at −80° C. until used. Fresh, heparin-anticoagulated porcine blood from healthy animals were obtained under USDA supervision from Midwest Research Swine, LLC (Glencoe, Minn.). 80 μL of hematocrit-enriched porcine blood (low-speed centrifugation, followed by resuspension in DMEM supplemented with 10% fetal bovine serum) was added to compound plates and incubated for 15 h. […] NF-κB translocation was assayed spectrophotometrically using an alkaline phosphatase-specific chromogen (present in HEK-detection medium as supplied by InvivoGen) at 620 nm using a SpectraMax M4 multimode microplate reader (Molecular Devices, Sunnyvale, Calif.). […] Example 7: Human NOD1/2-specific reporter gene assays (NF-κB induction), and TLR-2/-3/-4/-5/-7/-8/-9/STING/ISG counter-screens: The induction of NF-κB was quantified using human TLR-2/-3/-4/-5/-7/-8/-9/NOD-1/NOD-2/STING/ISG-specific, rapid-throughput, liquid handler-assisted reporter gene assays as previously described by us (Wu, W. et al. J. Med. Chem. 2010, 53, 3198-3213; Shukla, N. M. et al. J. Med. Chem. 2010, 53, 4450-4465; Agnihotri, G. et al. J. Med. Chem. 2011, 54, 1490-1510 and Ukani, R. et al. Bioorg. Med. Chem. Lett. 2012, 22, 293-295). […]

[2] = tested on: human whole blood; experiment: Cytokine/chemokine induction in human whole blood; format: cell-based
[3] = tested on: THP-1 NF-κB reporter cells; experiment: NF-κB translocation in THP-1 NF-κB reporter cells, alone or with TLR stimuli; format: cell-based, human; settings: for enhancement of NF-κB translocation response to TLR2 stimuli: concurrent exposure to compound and TLR2 agonist; for enhancement of NF-κB translocation response to TLR2 stimuli / enhancement of NF-κB translocation response to TLR4 stimuli / enhancement of NF-κB translocation response to TLR5 stimuli: data not shown; for enhancement of NF-κB translocation response to TLR4 stimuli: concurrent exposure to compound and TLR4 agonist; for enhancement of NF-κB translocation response to TLR5 stimuli: concurrent exposure to compound and TLR5 agonist; for enhancement of NF-κB translocation response to TLR7 stimuli: concurrent exposure to graded concentrations of compound and TLR7 agonist; for enhancement of NF-κB translocation response to TLR8 stimuli: concurrent exposure to graded concentrations of compound and TLR8 agonist
Excerpt: Given that Rip2 activity is proximal to several of the components that constitute the multiprotein signaling complexes involved in innate immune signaling, and Rip2 participates in signaling through some, but not all, TLRs, it was of particular interest to examine if the benzimidazole-thiophene-2-carboxamide formula I compounds could synergize with other innate immune stimuli. […] THP-1 NF-κB reporter cells were concurrently exposed to graded concentrations of either 7e or 7f, and a variety of innate immune stimuli, including TLR-2, -3, -4, -5, -7, -8, and -9 agonists. An enhancement in NF-κB translocation was observed.

Row | SMILES | cytokine and chemokine induction [1] | induction of cytokines and chemokines [2] | enhancement of NF-κB translocation response to TLR2 stimuli [3] | enhancement of NF-κB translocation response to TLR4 stimuli [3] | enhancement of NF-κB translocation response to TLR5 stimuli [3] | enhancement of NF-κB translocation response to TLR7 stimuli [3] | enhancement of NF-κB translocation response to TLR8 stimuli [3]
1 | CCCCCc1nc2ccccc2n1-c1csc(C(N)=O)c1 [Compound 7e, 4-(2-Pentyl-1H-benzo[d]imidazol-1-yl)thiophene-2-carboxamide] | abrogation of responsiveness | None of the small molecules (including 1, as well as the optimized, equipotent analogues 7e and 7f) showed any activity | absent | absent | evident | particularly pronounced; also recorded: enhancement of NF-κB translocation responses | particularly pronounced; also recorded: enhancement of NF-κB translocation responses; also recorded: distinctly biphasic
2 | CCCCCCc1nc2ccccc2n1-c1csc(C(N)=O)c1 [Compound 7f, 4-(2-Hexyl-1H-benzo[d]imidazol-1-yl)thiophene-2-carboxamide] | essentially identical to that of 7e | None of the small molecules (including 1, as well as the optimized, equipotent analogues 7e and 7f) showed any activity | absent | absent | evident | particularly pronounced | particularly pronounced

— patent publication US11465998B2, “Therapeutic compounds and methods of use thereof” (Regents of the University of Minnesota, priority 2019, dated 2022)
